Numbered stars: 1 amine (or outer) side, 2 acyl side, 3 side chain; on linkers, the order of the positions; unused ones are H or OH. Square brackets hold non-standard residues; d marks the D form. Peptide text beside a SMILES is read from it. * marks the point of attachment. Trp(βS-Me,7-OMe) = COc1cccc2c([C@H](C)[C@H](N)C(=O)O)c[nH]c12; dPro(trans-4-NMe3+) = C[N+](C)(C)[C@@H]1CN[C@@H](C(=O)O)C1; Trp(1-CH2COOH) = N[C@@H](Cc1cn(CC(=O)O)c2ccccc12)C(=O)O; Phe(4-SO2NH2) = N[C@@H](Cc1ccc(S(N)(=O)=O)cc1)C(=O)O; Trp(7-CN) = N#Cc1cccc2c(C[C@H](N)C(=O)O)c[nH]c12; X27 = O=C(O)c1ccc(C[C@H](N[*:1])C(=O)[*:2])cc1F; Phe(3-CONH2) = NC(=O)c1cccc(C[C@H](N)C(=O)O)c1; Phe(4-CONH2) = NC(=O)c1ccc(C[C@H](N)C(=O)O)cc1; Phe(4-COOH) = N[C@@H](Cc1ccc(C(=O)O)cc1)C(=O)O; Trp(7-aza) = N[C@@H](Cc1c[nH]c2ncccc12)C(=O)O; Pip(5R-OH) = O=C(O)[C@@H]1CC[C@@H](O)CN1; X1 = O=C([C@@H]1CC[C@H](N[*:1])C1)[*:2]; Gly(Nα-CH2CH2CONH2) = NC(=O)CCNCC(=O)O; Pip(4-aza) = O=C(O)[C@@H]1CNCCN1; 4Pal = N[C@@H](Cc1ccncc1)C(=O)O; dHyp = O=C(O)[C@H]1C[C@H](O)CN1; Ahp(2) = CCCCC[C@H](N)C(=O)O; αMeS = C[C@](N)(CO)C(=O)O; Carboxymethyl = O=C(O)C*; Nle = CCCC[C@H](N)C(=O)O; Sar = CNCC(=O)O
What was measured:
[1] = molecular target: T1, human TNFR1 extracellular domain (ECD) protein (Homo sapiens, UniProt P19438); test: SPR binding affinity to captured human TNFR1 ECD
T1 construct: HRV 3C protease cleavage site (C); 6His (C, cleaved yes); made in house; host or cells: Sf21 insect cells (baculovirus), secreted
T1 sequence (P19438 30-211): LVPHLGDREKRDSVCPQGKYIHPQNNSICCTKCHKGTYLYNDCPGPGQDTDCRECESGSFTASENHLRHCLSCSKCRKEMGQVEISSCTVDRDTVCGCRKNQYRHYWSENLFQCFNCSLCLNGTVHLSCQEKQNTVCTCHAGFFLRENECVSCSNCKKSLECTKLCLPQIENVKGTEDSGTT
Summary of the method: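 Peptide binding kinetics read by SPR in HEPES pH 7.4 running buffer with 2% DMSO, with TNFR2 ECD tested in parallel for off-target binding. Receptor ECDs, insect-cell expressed and biotinylated at C-terminal avi-tag, were captured via streptavidin. KA derived from association and dissociation rate constants.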

[2] = molecular target: T2, TNFα-induced NF-κB signal transduction pathway (TNFR1 signaling) in THP-1 cells (Homo sapiens, UniProt P19438); test: THP-1 Lucia NF-κB reporter cell assay, inhibition of TNFα-induced NF-κB signaling; type: cell-based; settings: THP-1 NF-κB Lucia reporter cells, 10 ng/mL TNFα, 16-18 h, secreted luciferase; read-out: THP-1 IC50
T2 sequence (P19438 30-455): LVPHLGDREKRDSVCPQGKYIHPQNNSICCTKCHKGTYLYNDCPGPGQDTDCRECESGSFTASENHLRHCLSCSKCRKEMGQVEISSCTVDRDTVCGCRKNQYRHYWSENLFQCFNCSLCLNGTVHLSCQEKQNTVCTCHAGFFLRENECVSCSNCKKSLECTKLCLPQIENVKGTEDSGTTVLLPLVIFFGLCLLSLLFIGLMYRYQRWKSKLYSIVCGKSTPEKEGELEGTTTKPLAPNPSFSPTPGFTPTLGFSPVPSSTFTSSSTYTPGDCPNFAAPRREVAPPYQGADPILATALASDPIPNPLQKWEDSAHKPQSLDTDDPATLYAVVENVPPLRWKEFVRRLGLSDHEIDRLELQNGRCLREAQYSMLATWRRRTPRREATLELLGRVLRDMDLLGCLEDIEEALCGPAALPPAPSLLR
Summary of the method: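 Inhibition of TNFR1-driven NF-κB activation was measured as luminescence of secreted reporter luciferase following overnight (16-18 h) stimulation with 10 ng/mL TNFα.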

| Structure (SMILES) | Kd [1] | IC50 [2] |
| --- | --- | --- |
| CCCC[C@@H]1NC(=O)[C@@H]2CC[C@@H](C2)NC(=O)[C@H]([C@@H](C)c2c[nH]c3c(OC)cccc23)NC(=O)CN(C)C(=O)[C@H](Cc2ccc(C(=O)O)cc2)NC(=O)[C@H](Cc2ccc(S(N)(=O)=O)cc2)NC(=O)[C@](C)(CO)NC(=O)[C@H](Cc2c[nH]c3c(C#N)cccc23)NC(=O)[C@H](Cc2ccc(C(=O)O)cc2)NC(=O)[C@H](CC(N)=O)NC(=O)[C@H]2C[C@H](OCC(=O)O)CN2C(=O)[C@H](Cc2c[nH]c3ncccc23)NC(=O)[C@@H]2CC[C@@H](O)CN2C(=O)[C@H](Cc2ccncc2)NC1=O [SEQ ID NO. 4] (cyclo([4Pal][Pip(5R-OH)][Trp(7-aza)][dHyp](Carboxymethyl)N[Phe(4-COOH)][Trp(7-CN)][αMeS][Phe(4-SO2NH2)][Phe(4-COOH)][Sar][Trp(βS-Me,7-OMe)][X1][Nle])) | 0.1 nM | 0.5 nM |
| CCCC[C@@H]1NC(=O)[C@@H]2CC[C@@H](C2)NC(=O)[C@H]([C@@H](C)c2c[nH]c3c(OC)cccc23)NC(=O)CN(C)C(=O)[C@H](Cc2ccc(C(=O)O)cc2)NC(=O)[C@H](Cc2ccc(C(N)=O)cc2)NC(=O)[C@](C)(CO)NC(=O)[C@H](Cc2c[nH]c3c(C#N)cccc23)NC(=O)[C@H](Cc2ccc(C(=O)O)c(F)c2)NC(=O)[C@H](CC(N)=O)NC(=O)[C@H]2C[C@H](O)CN2C(=O)[C@H](Cc2c[nH]c3ncccc23)NC(=O)[C@@H]2CC[C@@H](O)CN2C(=O)[C@H](Cc2ccncc2)NC1=O [SEQ ID NO. 8] (cyclo([4Pal][Pip(5R-OH)][Trp(7-aza)][dHyp]N[X27][Trp(7-CN)][αMeS][Phe(4-CONH2)][Phe(4-COOH)][Sar][Trp(βS-Me,7-OMe)][X1][Nle])) | 0.08 nM | 0.7 nM |
| CCCC[C@@H]1NC(=O)[C@@H]2CC[C@@H](C2)NC(=O)[C@H]([C@@H](C)c2c[nH]c3c(OC)cccc23)NC(=O)CN(C)C(=O)[C@H](Cc2ccc(C(N)=O)cc2)NC(=O)[C@H](Cc2ccc(S(N)(=O)=O)cc2)NC(=O)[C@](C)(CO)NC(=O)[C@H](Cc2c[nH]c3c(C#N)cccc23)NC(=O)[C@H](Cc2ccc(C(=O)O)cc2)NC(=O)[C@H](CC(N)=O)NC(=O)[C@H]2C[C@H]([N+](C)(C)C)CN2C(=O)[C@H](Cc2cn(CC(=O)O)c3ccccc23)NC(=O)[C@@H]2CC[C@@H](O)CN2C(=O)[C@H](Cc2ccncc2)NC1=O [SEQ ID NO. 9] (cyclo([4Pal][Pip(5R-OH)][Trp(1-CH2COOH)][dPro(trans-4-NMe3+)]N[Phe(4-COOH)][Trp(7-CN)][αMeS][Phe(4-SO2NH2)][Phe(4-CONH2)][Sar][Trp(βS-Me,7-OMe)][X1][Nle])) | 0.1 nM | 0.6 nM |
| CCCCC[C@@H]1NC(=O)[C@@H]2CC[C@@H](C2)NC(=O)[C@H]([C@@H](C)c2c[nH]c3c(OC)cccc23)NC(=O)CN(C)C(=O)[C@H](Cc2cccc(C(N)=O)c2)NC(=O)[C@H](Cc2ccc(C(N)=O)cc2)NC(=O)[C@](C)(CO)NC(=O)[C@H](Cc2c[nH]c3c(C#N)cccc23)NC(=O)[C@H](Cc2ccc(C(=O)O)cc2)NC(=O)[C@H](CC(N)=O)NC(=O)CN(CCC(N)=O)C(=O)[C@H](Cc2c[nH]c3ccccc23)NC(=O)[C@@H]2CNCCN2C(=O)[C@H](Cc2ccncc2)NC1=O [SEQ ID NO. 10] (cyclo([4Pal][Pip(4-aza)]W[Gly(Nα-CH2CH2CONH2)]N[Phe(4-COOH)][Trp(7-CN)][αMeS][Phe(4-CONH2)][Phe(3-CONH2)][Sar][Trp(βS-Me,7-OMe)][X1][Ahp(2)])) | 0.08 nM | 0.8 nM |
| CCCC[C@@H]1NC(=O)[C@@H]2CC[C@@H](C2)NC(=O)[C@H]([C@@H](C)c2c[nH]c3c(OC)cccc23)NC(=O)CN(C)C(=O)[C@H](Cc2ccc(C(N)=O)cc2)NC(=O)[C@H](Cc2ccc(C(N)=O)cc2)NC(=O)[C@](C)(CO)NC(=O)[C@H](Cc2c[nH]c3c(C#N)cccc23)NC(=O)[C@H](Cc2ccc(C(=O)O)cc2)NC(=O)[C@H](CC(N)=O)NC(=O)[C@H]2C[C@H](OC)CN2C(=O)[C@H](Cc2c[nH]c3ccccc23)NC(=O)[C@@H]2CC[C@@H](O)CN2C(=O)[C@H](Cc2ccncc2)NC1=O [SEQ ID NO. 14] (cyclo([4Pal][Pip(5R-OH)]W[dHyp](Me)N[Phe(4-COOH)][Trp(7-CN)][αMeS][Phe(4-CONH2)][Phe(4-CONH2)][Sar][Trp(βS-Me,7-OMe)][X1][Nle])) | 0.02 nM | 0.8 nM |

Reference: patent US20240287138A1, “CYCLIC PEPTIDES FOR INHIBITING TNF RECEPTOR 1 ACTIVITY” (Merck Sharp & Dohme LLC, priority 2023, published 2024)
